The source of these data is patent US4166859A, “2-Bromo-6-fluoro-N-(2-imidazolidinylidene)-benzamine and salts thereof and the use to treat hypertension” (Boehringer Ingelheim GmbH, priority 1976, dated 1979).

SMILES strings stand for the structures. Structures can show the parent of a compound that is named as a salt.

Series [1] in a line: Stomach juice secretion inhibition, method of Shay et al. To be noted: rat, in vivo; dose reducing volume of stomach juice secreted by 50% and total acidity by 50%; measure of dryness of the mouth; read-out: Stomach juice secretion inhibiting ED50 in rats. Here is the method:
The effect on the stomach juice secretion was determined on rats by the standard test method of Shay et al, Gastroenterology 5, 43 (1943), and the ED50 was calculated for each test compound, that is, the dose which reduces the volume of stomach juice secreted over a given amount of time by 50%, and at the same time produces a 50% reduction in the total acidity of the secreted stomach juice volume.

In series [2] the test system is blood pressure. Description: Hypotensive activity (blood pressure reduction) in rabbits under urethane anesthesia, i.v. Format: in vivo. To be noted: for ED (20 mm Hg): Oryctolagus cuniculus, iv, urthane anesthesia, dose producing lasting reduction of 20 mm Hg of blood pressure, arteria carotis, read-out: Hypotensive ED20 in rabbits. The procedure: The hypotensive activity of the test compounds was determined on a statistically significant number of rabbits under urthane anesthesia. The blood pressure of the test animals was continuously measured in the arteria carotis by means of a mercury manometer before and after the i.v. administration of the test compound at varying dosage levels. The ED20 was determined, that is, the dose which produced a lasting reduction of 20 mm Hg of the blood pressure.

Series [3] can be described thus: pKa-value. Format: physicochemical.
The nature of series [4]: Hygroscopicity of acid addition salts. It is filed as physicochemical.

As to `Fc1cccc(Br)c1NC1=NCCN1` [2-bromo-6-fluoro-N-(2-imidazolidinylidene)-benzamine monohydrochloride], the ED50 in series [1] amounted to 0.1 mg/kg. Moreover, the ED (20 mm Hg) in series [2] was 0.01 mg/kg. In series [3], this molecule had a pKa of 8.2.
Turning to `Fc1cccc(Br)c1N=C1NCCN1` [Benzoate], the hygroscopicity entry in series [4] is “slightly hygroscopic”.
For `Fc1cccc(Br)c1N=C1NCCN1` [Citrate], the hygroscopicity entry in series [4] was “hygroscopic”.
In the case of `Clc1cccc(Cl)c1NC1=NCCN1` [Clonidine . HCl, 2-(2,6-dichloroanilino)-2-imidazoline, reference compound], the ED50 in series [1] is 0.04 mg/kg. The ED (20 mm Hg) in series [2] amounted to 0.01 mg/kg.
Take `Fc1cccc(Br)c1N=C1NCCN1` [Hydrobromide]: in series [4], the hygroscopicity result was “hygroscopic”.
With `Fc1cccc(Br)c1N=C1NCCN1` [Methanesulfonate], the hygroscopicity entry in series [4] was “hygroscopic”.
As for `Fc1cccc(Br)c1N=C1NCCN1` [Nitrate], in series [4], the hygroscopicity entry is given as “slightly hygroscopic”.
Take `Fc1cccc(Br)c1N=C1NCCN1` [Oxalate]: the hygroscopicity entry in series [4] is on record as “hygroscopic”.
`Fc1cccc(Br)c1N=C1NCCN1` [Tartrate]: the hygroscopicity result in series [4] is recorded as “hygroscopic”.
The same measure, in the same setting: next, `Fc1cccc(Br)c1N=C1NCCN1` [Tosylate]: “hygroscopic”.
With `Clc1cccc(Cl)c1NC1=NCCN1` [clonidine, 2-(2,6-dichloroanilino)-2-imidazoline], in series [2] (comparison with 2-bromo-6-fluoro-N-(2-imidazolidinylidene)-benzamine), the “antihypertensive efficacy relative to the invention compound” value is “equal antihypertensive efficacy”.

By ED50 is commonly meant the midpoint of the dose-response relation. Broadly, the pKa is the negative logarithm of the acid dissociation constant.
